# Values quoted from earlier work in patent US5468754A, “11,7 substituted camptothecin derivatives and formulations of 11,7 substituted camptothecin derivatives and methods for uses thereof” (priority 1994, dated 1995).
# Entries after “also recorded” stand apart in the source; their conditions may differ. Read-outs that look alike come from different tables or passages of the source.
# What was measured:
# Small Cell Lung Cancer = conditions: Negoro et al, 100 mg/m^2/week, 41 pts, cited from earlier work
# Leukemia/Lymphoma = conditions: Ohono et al, cited from earlier work
# Cervical cancer = conditions: Takeuchi et al; 100 mg/m^2 weekly, 150 mg/m^2 weeks; 69 pts; cited from earlier work
# [1] = 5-day continuous intravenous infusion; cited from earlier work
# renal = conditions: Culine et al, 90 min, 150 mg/m2/wk (50-150); cited from earlier work
# [2] = system: Topoisomerase I, purified from human colon carcinoma cells; conditions: cited from earlier work
# [3] = system: Human lung cancer cell lines; conditions: human lung cancer cell lines vs normal cells; cited from earlier work
# [4] = Ohe et al; 120 hr infusion Q3 wks, 40 mg/m2/d (5-40); cited from earlier work
# [5] = cited from earlier work
# Mesothelioma = conditions: Clavel et al, 90 min QDx3 Q21 days; cited from earlier work
# [6] = compared with parent compound camptothecin; cited from earlier work
# [7] = system: xenografts of human tumors; conditions: Kawato et al., nude mice; cited from earlier work
# [8] = system: Refractory or Relapsed Small Cell Lung Cancer; conditions: Masudu et al; 100 mg/m^2 weekly; 16 pts; cited from earlier work
# esophagus = conditions: Culine et al, 90 min, 150 mg/m2/wk (50-150); cited from earlier work
# [9] = system: Untreated Non Small Cell Lung Cancer; conditions: Fukuoka et al; 100 mg/m^2; 73 pts; cited from earlier work
# cervix = conditions: cited from earlier work
# Colon cancer = conditions: Shimada et al; 100 mg/m^2/week or 150 mg/m^2/Q 2 wks; 17 pts; cited from earlier work
# ovarian = conditions: Culine et al, 90 min, 150 mg/m2/wk (50-150); cited from earlier work
# [10] = patients; cited from earlier work
# [11] = cited from earlier work; remark: listed apart in the source
# [12] = system: Topoisomerase I, purified from calf thymus; conditions: cited from earlier work
# [13] = compared with parent compound camptothecin; cited from earlier work; remark: listed apart in the source
# Colon Ca = conditions: cited from earlier work
# [14] = cited from earlier work; remark: listed apart in the source
# Breast = conditions: Clavel et al, 90 min QDx3 Q21 days; cited from earlier work
# [15] = Negoro et al, Small Cell Lung Cancer, 100 mg/m^2/week
# [16] = Ohono et al, Leukemia/Lymphoma, 62 pts
# [17] = Shimada et al, Colon cancer, 17 pts
# [18] = Takeuchi et al, Cervical cancer, 69 pts
# [19] = Clavel et al, 90 min, QDx3 Q21 days, 115 mg/m2/d (33-115), 37 pts
# [20] = Culine et al, 90 min, Q21 days, 150 mg/m2/wk (50-150), 59 pts
# [21] = Negoro et al, 30 min infusion weekly, 100 mg/m2 (50-150), 17 pts
# [22] = Ohe et al, 120 hr CI Q3 wks, 40 mg/m2/d (5-40), 36 pts
# [23] = Rothenberg et al, QWx4 Q42 days, 180 mg/m2/wk (50-180), 32 pts
# [24] = Rowinsky et al, 90 min infusion Q21 day, 240 mg/m2 (100-345), 32 pts
compound,measurement,setting,value
CCc1c2c(nc3ccc(OC(=O)N4CCC(N5CCCCC5)CC4)cc13)-c1cc3c(c(=O)n1C2)COC(=O)[C@]3(O)CC [CPT-11],RESPONSE,Small Cell Lung Cancer; 2 CRs and 7 PRs,33.3%
same,RESPONSE (CRs),Small Cell Lung Cancer,2 CRs
same,RESPONSE (PRs),Small Cell Lung Cancer,7 PRs
same,RESPONSE (RR),Leukemia/Lymphoma; 20 mg/m^2 bid x7,25 % RR
same,RESPONSE (PR),Leukemia/Lymphoma; 40 mg/m^2 x5,34 % PR
same,RESPONSE,Leukemia/Lymphoma; 200 mg Q3,No resp.
same,RESPONSE (CR),Cervical cancer,SCR
same,RESPONSE (PR),Cervical cancer,8 PR
same,RESPONSE (RR),Cervical cancer,23.6%
same,conversion of CPT-11 to SN38,[1],saturable process
same,Tumor response (partial responses),renal,1 PR
same,inhibition of Topoisomerase I,[2],inhibited
same,conversion of CPT-11 to SN38,[3],convert less CPT-11 to SN38 than normal cells
same,Tumor response,[4],None
same,Toxicity,"[5]; Fukuoka et al, Untreated Non Small Cell Lung Cancer, 100 mg/m^2",Neutropenia; also recorded: diarrhea; also recorded: nausea; also recorded: vomiting; also recorded: anorexia; also recorded: alopecia
same,pneumonitis,"[5]; Masudu et al, 100 mg/m^2 weekly, 16 pts",12.5%
same,Toxicity,"[5]; Masudu et al, Refractory or Relapsed Small Cell Lung Cancer, 100 mg/m^2 weekly",Neutropenia; also recorded: diarrhea
same,N/V,[5]; [15],61.5%
same,alopecia,[5]; [15],40.0%
same,diarrhea,[5]; [15],53.8%
same,Gastrointestinal,[5]; [16],76%
same,Toxicity,[5]; [16],Thromocytopenia
same,N/V,[5]; [17],35%
same,diarrhea,[5]; [17],24%
same,N/V,[5]; [18],51%
same,alopecia,[5]; [18],38.1%
same,diarrhea,[5]; [18],39.1%
same,Tumor response (partial responses),Mesothelioma,1 PR
same,antitumor activity,[6],retain the significant antitumor activity of the parent compound
same,sensitivity of human tumors vs their ability to produce SN38,[7],independent of their ability to produce SN38
same,RESPONSE (PRs),[8],47%
same,"RESPONSE (PRs, patients)",[8],7/15
same,Tumor response (partial responses),esophagus,1 PR
same,RESPONSE (PRs),[9],31.9%
same,"RESPONSE (PRs, patients)",[9],23/72
same,Tumor response (partial responses),"cervix; Culine et al, cervix, 90 min, 150 mg/m2/wk (50-150)",1 PR
same,Tumor response (partial responses),"cervix; Rowinsky et al, Cervix Ca, 90 min infusion Q21 day, 240 mg/m2 (100-345)",1 PR
same,RESPONSE,Colon cancer,46%
same,"RESPONSE (PR, patients)",Colon cancer,6/17
same,Tumor response (partial responses),ovarian,1 PR
same,variability of metabolic conversion of CPT-11 to SN38,[10],large range of interpatient variability; also recorded: varies from patient to patient
same,"Fractional amount of lactone species, CPT-11 CpMax Based",[11]; 50 mg/m2 single dose I.V.,0.51
same,"Fractional amount of lactone species, CPT-11 CpMax Based",[11]; 80 mg/m2 single dose I.V.,0.44
same,"Fractional amount of lactone species, CPT-11 CpMax Based",[11]; 100 mg/m2 single dose I.V.,0.53
same,"Fractional amount of lactone species, CPT-11 CpMax Based",[11]; 125 mg/m2 single dose I.V.,0.55
same,"Fractional amount of lactone species, CPT-11 CpMax Based",[11]; 150 mg/m2 single dose I.V.,0.42
same,"Fractional amount of lactone species, CPT-11 CpMax Based",[11]; 180 mg/m2 single dose I.V.,0.42
same,overall fractional concentration of the lactone species,"[11]; through a range of doses, total AUC and CpMax data",fairly constant through a range of doses
same,inhibition of Topoisomerase I,[12],inhibited
same,Toxicity,[13],less sporadic toxicities
same,Tumor response (partial responses),"Colon Ca; Rothenberg et al, QWx4 Q42 days, 180 mg/m2/wk (50-180)",2 PRs
same,Tumor response (partial responses),"Colon Ca; Rowinsky et al, 90 min infusion Q21 day, 240 mg/m2 (100-345)",1 PR
same,Toxicity,[14]; [19],diarrhea; also recorded: nausea; also recorded: vomiting; also recorded: alopecia
same,Toxicity (Dose Limiting Toxicity),[14]; [19],Neutropenia
same,Toxicity,[14]; [20],vomiting; also recorded: alopecia; also recorded: fatigue; also recorded: stomatitis
same,Toxicity (Dose Limiting Toxicity),[14]; [20],Neutropenia; also recorded: diarrhea
same,Toxicity,[14]; [21],N/V and alopecia and liver
same,Toxicity (Dose Limiting Toxicity),[14]; [21],Neutropenia; also recorded: Diarrhea
same,Toxicity,[14]; [22],nausea; also recorded: vomiting; also recorded: thromobo-; also recorded: anemia; also recorded: liver
same,Toxicity (Dose Limiting Toxicity),[14]; [22],Diarrhea
same,"major reported, dose-limiting toxicities",[14]; Phase I and Phase II clinical trials of CPT-11,Neutropenia and diarrhea
same,Toxicity,[14]; [23],Neutropenia; also recorded: nausea; also recorded: vomiting; also recorded: alopecia
same,Toxicity (Dose Limiting Toxicity),[14]; [23],Diarrhea
same,Toxicity,[14]; [24],vomiting and diarrhea and pain and flushing
same,Toxicity (Dose Limiting Toxicity),[14]; [24],Neutropenia
same,Tumor response (partial responses),Breast,1 PR
